This note sets out measurements from ChEMBL document CHEMBL1909588, “Synthesis and in vitro antitubercular evaluation of novel sansanmycin derivatives” (2011).

In brackets after ≈: the same amount, converted by molar mass.

In the experiment the test system is Mycobacterium tuberculosis. As to the kind of experiment: Antitubercular activity against rifampicin and isoniazid-resistant Mycobacterium tuberculosis isolate 2199 after 24 hrs by microplate alamar blue assay. It is filed as functional. Particulars: isolate 2199, 24 h. (In general: Resazurin is reduced to fluorescent resorufin, in cell work by metabolically active cells.)

The MIC is the least concentration at which growth counts as inhibited. In the case of `CO[C@H]1/C=C/O[C@@]2(C)Oc3c(C)c(O)c4c(O)c(c(/C=N/N5CCN(C)CC5)c(O)c4c3C2=O)NC(=O)/C(C)=C\C=C\[C@H](C)[C@H](O)[C@@H](C)[C@@H](O)[C@@H](C)[C@H](OC(C)=O)[C@@H]1C` [RIFAMPIN], it took 20 mg/L (≈ 24.3 µM) to inhibit growth (MIC).

In the case of `CSCCC(NC(=O)NC(Cc1c[nH]c2ccccc12)C(=O)O)C(=O)NC(C(=O)N/C=C1\C[C@@H](O)[C@H](n2ccc(=O)[nH]c2=O)O1)C(C)N(C)C(=O)C(N)Cc1cccc(O)c1` (some centres undefined) [SANSANMYCIN A], the MIC turned out to be 32 mg/L (≈ 37 µM). Take `NNC(=O)c1ccncc1` [ISONIAZID]: 40 mg/L (≈ 292 µM) was the least that counted as inhibitory (MIC).

`CSCCC(NC(=O)NC(Cc1c[nH]c2ccccc12)C(=O)O)C(=O)NC(C(=O)N/C=C1\C[C@@H](O)[C@H](n2ccc(=O)[nH]c2=O)O1)C(C)N(C)C(=O)C(Cc1cccc(O)c1)NC(C)C` (some centres undefined) had an MIC of 8 mg/L (≈ 8.83 µM).
